pEC50: −log10 of the molar value. Like-named read-outs stand apart in the source and are kept apart here.
How the values were obtained:
[1] = test system: HEK293 cells; assay: Cell cycle analysis by FACS of HEK293 cells; type: cell-based; conditions: for Percent of Cells in G1 / Percent of Cells in G2/M / Percent of Cells in S: treated 16 to 24 hrs; for accumulation of cells in G2/M: HEK293, concentrations as in Table 1; for FACS profile / cell cycle effect: HEK293, FACS
Description: Fluorescence-activated cell sorting (FACS) analysis was used to examine the cell cycle state when the cells were incubated with compounds of formula (I) as well as several control compounds, including DMSO, noscapine (a known G2/M inhibitor), and colchicine (a known G2/M inhibitor).
(§1) In particular, HEK293 cells were cultured in DMEM media (Celigro) supplemented with 10% Fetal Bovine Serum (Tissue Culture Biologicals) and 1× Penicillin/Streptomycin/Glutamine (Gibco). The cells were grown at 37° C. with 5% CO2, plated in six-well plates at 2.5×10^6 cells/well, and treated for 16 to 24 hrs with the compounds at the concentrations shown in Table 1, below. The cells were then triturated off the bottom of the wells, washed 1× with PBS, then fixed with 70% ethanol, and stored at 4° C. before staining and FACS analysis.
The DNA content of cells was determined using a FacsVantage SE flow cytometry system (Becton Dickinson, San Jose, Calif.) and a Cellular DNA Flow Cytometric Analysis Kit (Roche Applied Science, Indianapolis, Ind.). Cell cycle analysis was performed using Cylchred 1.0.2 software.

[2] = biological target: T1, topoisomerase I (Homo sapiens, UniProt P11387); assay: Topoisomerase I assay (supercoiled pBluescript DNA, agarose gel); type: biochemical; conditions: in vitro, FIG. 2
T1 construct: purchased Sigma-Aldrich
T1 sequence (P11387 1-765): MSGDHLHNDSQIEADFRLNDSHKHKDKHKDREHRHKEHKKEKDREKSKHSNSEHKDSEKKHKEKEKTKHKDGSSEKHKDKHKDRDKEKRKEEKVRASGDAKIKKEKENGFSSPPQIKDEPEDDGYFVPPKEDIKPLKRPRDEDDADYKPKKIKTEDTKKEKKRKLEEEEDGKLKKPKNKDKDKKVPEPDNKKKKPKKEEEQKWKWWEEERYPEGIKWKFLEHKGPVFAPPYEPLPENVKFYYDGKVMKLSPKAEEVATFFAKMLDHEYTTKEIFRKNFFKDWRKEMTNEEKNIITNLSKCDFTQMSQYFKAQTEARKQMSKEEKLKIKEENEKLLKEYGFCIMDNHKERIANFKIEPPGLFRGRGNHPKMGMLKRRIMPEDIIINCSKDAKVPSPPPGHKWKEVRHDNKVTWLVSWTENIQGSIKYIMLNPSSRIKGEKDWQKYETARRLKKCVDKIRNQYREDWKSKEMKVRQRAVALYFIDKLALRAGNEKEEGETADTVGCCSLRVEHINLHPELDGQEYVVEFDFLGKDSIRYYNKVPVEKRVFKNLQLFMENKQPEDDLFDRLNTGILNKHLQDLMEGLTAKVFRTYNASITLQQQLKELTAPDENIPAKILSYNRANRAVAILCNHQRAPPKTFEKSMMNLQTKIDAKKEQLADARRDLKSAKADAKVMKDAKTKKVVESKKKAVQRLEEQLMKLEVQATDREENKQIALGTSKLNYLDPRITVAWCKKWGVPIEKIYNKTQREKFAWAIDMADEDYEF
Description: (§2) The ability of compounds that cause S-phase cell cycle arrest to inhibit topoisomerase I and topoisomerase II was examined. Analysis of topoisomerase activity was performed in 20 μl reactions with either topoisomerase I reaction buffer (10 mM TRIS-HCl, pH 7.5; 100 mM NaCl; 1 mM 2-mercaptoethanol) or topoisomerase II reaction buffer (50 mM Tris-HCl, pH 8; 120 mM KCl; 10 mM MgCl2; 0.5 mM dithiothreitol; 0.5 mM ATP; 30 μg BSA/ml) containing 125 ng supercoiled pBluescript DNA and either 2 U topoisomerase I (Sigma-Aldrich) or topoisomerase II (Topogen Inc.). After reaction at 37° C. for 20 minutes, the reactions were terminated through the addition of sodium dodecyl sulfate to 1% w/v and heating to 65° C. for 10 minutes. Proteinase K was then added to 10 μg/ml and digestion was allowed to proceed at 37° C. for 20 minutes before electrophoresis of the DNA in 0.8% agarose gels containing 0.5 μg/ml ethidium bromide for 18 hours at 75V in 0.5×TBE buffer. DNA was then visualized using a UV-transilluminator and the image was captured using a BioRad CCD camera and gel documentation system.

[3] = test system: non-stimulated peripheral blood lymphocytes (PBLs); assay: Cell cycle analysis on non-stimulated peripheral blood lymphocytes; type: cell-based; conditions: PBL (non-stimulated), 25 μM, 16 to 24 hrs
Description: (§3) The effects of compounds 5a,b on the cell cycle were further examined on phytohemagglutinin (PHA)-stimulated and non-stimulated peripheral blood lymphocytes (PBLs).
as §1, with “PBLs” for “In particular, HEK293 cells”, “2.5-5×10^6” for “2.5×10^6”, “2, below, with or without 1 μg/ml PHA (Sigma).” for “1, below.”

[4] = test system: phytohemagglutinin (PHA)-stimulated peripheral blood lymphocytes (PBLs); assay: Cell cycle analysis on phytohemagglutinin-stimulated peripheral blood lymphocytes; type: cell-based; conditions: PHA-stim. PBL (1 μg/ml PHA), 25 μM, 16 to 24 hrs
Description: as §3
as §1, with “PBLs” for “In particular, HEK293 cells”, “2.5-5×10^6” for “2.5×10^6”, “2, below, with or without 1 μg/ml PHA (Sigma).” for “1, below.”

[5] = test system: HEK293 cells; assay: HEK293 cell viability, CellTiter 96 Aqueous One Solution Cell Proliferation assay; type: cell-based; conditions: Homo sapiens, HEK293, 48 h
Description: The effect of various doses of compounds 5a, 5a,b, and 9a on the viability of HEK293 cells was examined using the CellTiter 96 Aqueous One Solution Cell Proliferation assay (Promega). The HEK293 cells were cultured in DMEM media (Cellgro) or phenol red-free DMEM (Gibco) supplemented with 10% Fetal Bovine Serum (Tissue Culture Biologicals) and 1× Penicillin/Streptomycin/Glutamine (Gibco). The cells were grown at 37° C. with 5% CO2. HEK293 cells were seeded into each well of a 96-well plate (5000 cells/well) and incubated overnight to allow the cells to attach. The culture media was removed and replaced with 100 μl of phenol red-free media containing the compounds 5a, 5a,b, and 9a at various concentrations. The cells were allowed to grow in the presence of the compounds for 48 hrs. At the end of the treatment, 20 μl of CellTiter 96 Aqueous One Solution reagent was added directly into each well, and the cells were incubated at 37° C. for 2 hrs. This reagent converts to a form that absorbs light at 490 nm by living cells. Thus, absorbance at 490 nm is proportional to the number of viable cells. The 490 nm absorbance was measured on a BioRad plate reader. Control wells containing no cells were included in this assay to correct for background absorbance.

[6] = test system: HTS-tubulin (90% tubulin plus 10% microtubule associated proteins); assay: Microtubule polymerization assay (turbidity at 340 nm); type: biochemical; conditions: absorbance at 340 nm, 30 minutes, 37° C., FIG. 3
Description: Microtubule polymerization assays were performed to determine if compounds, such as compound 9a, cause G2/M cell cycle arrest by affecting microtubule dynamics. A microtubule polymerization assay was performed that takes advantage of the observation that there is an increase in turbidity that can be measured at 340 nm as tubulin heterodimers polymerize to form microtubules. In brief, HTS-tubulin (90% tubulin plus 10% microtubule associated proteins; Cytoskeleton Inc., Denver, Colo.) was resuspended in G-PEM buffer (80 mM Pipes, pH 6.9; 2 mM MgCl2; 0.5 mM EDTA; 1 mM GTP) to 10 mg/ml. This suspension was clarified by centrifugation for 10 min. at 225,000×g. The supernatant was then diluted with G-PEM buffer to 2 mg/ml and 100 μl of this solution was added to the appropriate number of ½-area wells in a 96-well format (Corning). Each compound (10 μl of a 10× final concentration in 10% DMSO) was added to the wells in duplicate and immediately put into a pre-warmed (37° C.) Spectromax 190 plate reader. The absorbance was read at 340 nm immediately (time=0) and every minute thereafter for 30 minutes.
The tubulin mix was incubated in the presence of paclitaxel (a microtubule stabilizing agent), nocodazole (a microtubule destabilizing agent), vehicle control (DMSO), or varying concentrations of compound 9a (FIG. 3).

[7] = biological target: T2, topoisomerase II (Homo sapiens, UniProt P11388); assay: Topoisomerase II assay (supercoiled pBluescript DNA, agarose gel); type: biochemical; conditions: in vitro, FIG. 2
T2 construct: purchased Topogen Inc
T2 sequence (P11388 whole entry): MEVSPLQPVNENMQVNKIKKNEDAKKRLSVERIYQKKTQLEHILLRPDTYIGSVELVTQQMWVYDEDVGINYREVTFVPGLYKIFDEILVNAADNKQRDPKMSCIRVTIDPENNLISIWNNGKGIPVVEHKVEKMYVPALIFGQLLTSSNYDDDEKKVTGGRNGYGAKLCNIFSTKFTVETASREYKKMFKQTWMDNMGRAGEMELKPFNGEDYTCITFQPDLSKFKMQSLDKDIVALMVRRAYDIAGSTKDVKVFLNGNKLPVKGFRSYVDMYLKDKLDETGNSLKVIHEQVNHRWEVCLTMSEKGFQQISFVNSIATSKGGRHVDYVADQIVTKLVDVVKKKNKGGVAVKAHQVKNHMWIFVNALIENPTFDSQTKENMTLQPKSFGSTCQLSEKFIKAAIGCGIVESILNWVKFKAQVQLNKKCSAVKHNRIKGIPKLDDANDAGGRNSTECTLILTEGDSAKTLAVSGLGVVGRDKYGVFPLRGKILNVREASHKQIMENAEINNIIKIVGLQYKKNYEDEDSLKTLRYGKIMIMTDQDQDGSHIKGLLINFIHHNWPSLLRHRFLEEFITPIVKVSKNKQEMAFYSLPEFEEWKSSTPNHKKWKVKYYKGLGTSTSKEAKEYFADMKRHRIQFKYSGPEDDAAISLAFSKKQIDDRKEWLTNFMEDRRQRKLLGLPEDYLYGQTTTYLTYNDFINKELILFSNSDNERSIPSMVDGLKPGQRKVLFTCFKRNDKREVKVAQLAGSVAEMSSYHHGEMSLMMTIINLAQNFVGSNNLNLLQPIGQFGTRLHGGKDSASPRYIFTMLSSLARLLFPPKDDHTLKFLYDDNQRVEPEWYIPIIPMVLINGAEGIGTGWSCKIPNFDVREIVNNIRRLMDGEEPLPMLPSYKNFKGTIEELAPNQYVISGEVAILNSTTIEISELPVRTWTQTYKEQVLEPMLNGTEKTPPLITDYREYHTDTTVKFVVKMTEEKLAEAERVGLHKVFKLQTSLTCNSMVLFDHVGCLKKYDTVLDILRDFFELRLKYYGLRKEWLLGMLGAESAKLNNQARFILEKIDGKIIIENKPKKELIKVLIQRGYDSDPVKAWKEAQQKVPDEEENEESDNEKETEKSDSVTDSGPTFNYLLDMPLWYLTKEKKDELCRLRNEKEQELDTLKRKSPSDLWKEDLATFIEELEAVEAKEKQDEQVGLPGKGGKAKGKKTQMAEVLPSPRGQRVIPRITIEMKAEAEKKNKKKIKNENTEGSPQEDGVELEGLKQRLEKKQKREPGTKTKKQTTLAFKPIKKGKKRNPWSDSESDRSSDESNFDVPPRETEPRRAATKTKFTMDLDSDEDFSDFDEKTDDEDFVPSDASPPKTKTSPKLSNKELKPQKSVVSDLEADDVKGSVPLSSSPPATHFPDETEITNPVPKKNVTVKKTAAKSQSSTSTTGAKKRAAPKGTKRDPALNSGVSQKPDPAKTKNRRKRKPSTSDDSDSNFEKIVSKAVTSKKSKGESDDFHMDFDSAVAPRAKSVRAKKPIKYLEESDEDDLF
Description: as §2, with “Analysis” for “The ability of compounds that cause S-phase cell cycle arrest to inhibit topoisomerase I and topoisomerase II was examined. Analysis”

SMILES: COc1cc2c(c(OC)c1OC)-c1ccc(OC)c(=O)cc1[C@@H](NC(C)=O)CC2 [colchicine, reference compound]
- Percent of Cells in G1 ([1]; HEK293, 10 μM): 2.7%
- Percent of Cells in G2/M ([1]; HEK293, 10 μM): 83.4%
- Percent of Cells in S ([1]; HEK293, 10 μM): 13.9%

SMILES: COc1cc([C@@H]2c3cc4c(cc3[C@@H](O[C@@H]3O[C@@H]5CO[C@@H](C)O[C@H]5[C@H](O)[C@H]3O)[C@H]3COC(=O)[C@H]23)OCO4)cc(OC)c1O [etoposide]
- inhibition of topoisomerase I activity [2]: neither etoposide nor noscapine inhibited

SMILES: COc1ccc2c(c1S)C(=O)O[C@@H]2[C@H]1c2c(cc3c(c2OC)OCO3)CCN1C [Compound 13]
- Percent of Cells in G1 ([1]; HEK293, 5 μM): 3.2%
- Percent of Cells in G2/M ([1]; HEK293, 5 μM): 89.6%
- Percent of Cells in S ([1]; HEK293, 5 μM): 7.2%
- accumulation of cells in G2/M [1]: ~90%

SMILES: COc1ccc2c(c1)C(=O)O[C@@H]2[C@H]1c2c(cc3c(c2OC)OCO3)CCN1C [Compound 12]
- Percent of Cells in G1 ([1]; HEK293, 1 μM): 3.8%
- Percent of Cells in G2/M ([1]; HEK293, 1 μM): 89.8%
- Percent of Cells in S ([1]; HEK293, 1 μM): 6.4%
- accumulation of cells in G2/M [1]: ~90%

SMILES: COc1cc(COc2c(OC)ccc3c2C(=O)OC3[C@H]2c3c(cc4c(c3OC)OCO4)CCN2C)cc(OC)c1OC (stereo partly shown) [Compound 5a,b]
- Percent of Cells in G1 ([1]; HEK293, 50 μM): 13.1%
- Percent of Cells in G2/M ([1]; HEK293, 50 μM): 6.3%
- Percent of Cells in S ([1]; HEK293, 50 μM): 80.7%
- FACS profile / cell cycle effect [1]: accumulate more cells in S-phase than 6a,b
- Percent of Cells in G1 [3]: 91.6%
- Percent of Cells in G2/M [3]: 1.5%
- Percent of Cells in S [3]: 6.8%
- Percent of Cells in G1 [4]: 69.3%
- Percent of Cells in G2/M [4]: 5.4%
- Percent of Cells in S [4]: 25.3%
- pEC50 [5]: 6.40
- pEC50 ([5]; text summary): > 6.00

SMILES: COC(=O)Nc1nc2ccc(C(=O)c3cccs3)cc2[nH]1 [Nocodazole, reference compound]
- effect on microtubule polymerization [6]: decreased microtubule polymerization
- pEC50 ([5]; read-out: EC50): > 7.70

SMILES: CC[C@@]1(O)C(=O)OCc2c1cc1n(c2=O)Cc2cc3c(CN(C)C)c(O)ccc3nc2-1 [topotecan]
- inhibition of topoisomerase II activity [7]: neither topotecan nor noscapine acts as inhibitors
- concentrations at which topoisomerase I activity was inhibited [2]: below 3 μM

SMILES: COc1ccc2c(c1C#N)C(=O)O[C@@H]2[C@H]1c2c(cc3c(c2OC)OCO3)CCN1C [Compound 10, 5-methoxy-1-(4-methoxy-6-methyl-5,6,7,8-tetrahydro-[1,3]dioxolo-[4,5-g]isoguinolin-5-yl)-3-oxo-1,3-dihydro-isobenzofuran-4-carbonitrile]
- Percent of Cells in G1 ([1]; HEK293, 50 μM): 2%
- Percent of Cells in G2/M ([1]; HEK293, 50 μM): 89.2%
- Percent of Cells in S ([1]; HEK293, 50 μM): 8.8%
- accumulation of cells in G2/M [1]: ~90%

SMILES: COc1cc(COc2c(OC)ccc3c2C(=O)O[C@@H]3[C@H]2c3c(cc4c(c3OC)OCO4)CCN2C)cc(OC)c1OC [Compound 5a]
- pEC50 ([5]; read-out: EC50): 6.52
- pEC50 ([5]; text summary, read-out: EC50): > 6.00

SMILES: CC(=O)O[C@H]1C(=O)[C@@]2(C)[C@H]([C@H](OC(=O)c3ccccc3)[C@]3(O)C[C@H](OC(=O)[C@H](O)[C@@H](NC(=O)c4ccccc4)c4ccccc4)C(C)=C1C3(C)C)[C@]1(OC(C)=O)CO[C@@H]1C[C@@H]2O [Paclitaxel, reference compound]
- effect on microtubule polymerization [6]: increased microtubule polymerization
- pEC50 ([5]; read-out: EC50): > 7.00

SMILES: COc1ccc2c(c1OCc1ccccc1)C(=O)OC2[C@H]1c2c(cc3c(c2OC)OCO3)CCN1C (stereo partly shown) [6a,b]
- Percent of Cells in G1 ([1]; HEK293, 50 μM): 12.1%
- Percent of Cells in G2/M ([1]; HEK293, 50 μM): 16.7%
- Percent of Cells in S ([1]; HEK293, 50 μM): 71.2%
- FACS profile / cell cycle effect [1]: accumulating in S-phase
